In brackets after ≈: the same amount, converted by molar mass.
Assays:
Assay in all cases: in vitro antibacterial activity (MIC), agar dilution
Type in all cases: cell-based
[1] = system: Candida albicans CCH 442; details: organism code TT; BHI agar, 35-37° C., 20 to 24 hours; unit assumed
How it was run: (§1)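 Agar dilution on BHI agar with twelve successive compound dilutions; plates inoculated by Steers replicator with 1:100 culture dilutions (1:10 for slow growers such as Streptococcus). MIC is the lowest concentration giving no growth, slight haze or sparse colonies versus a drug-free control.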

[2] = system: Enterococcus faecium ATCC 8043; details: organism code II; BHI agar, 35-37° C., 20 to 24 hours; unit assumed
How it was run: as §1

[3] = system: Escherichia coli DC-2; details: organism code SS; BHI agar, 35-37° C., 20 to 24 hours; unit assumed
How it was run: as §1

[4] = system: Escherichia coli JUHL; details: organism code QQ; BHI agar, 35-37° C., 20 to 24 hours; unit assumed
How it was run: as §1

[5] = system: Escherichia coli SS; details: organism code RR; BHI agar, 35-37° C., 20 to 24 hours; unit assumed
How it was run: as §1

[6] = system: Haemophilis Influenzae DILL AMP R; details: organism code WW; BHI agar, 35-37° C., 20 to 24 hours; unit assumed
How it was run: as §1

[7] = system: Micrococcus luteus ATCC 4698; details: organism code PP; BHI agar, 35-37° C., 20 to 24 hours; unit assumed
How it was run: (§2)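 BHI agar incorporation method; twelve compound concentrations. Streptococcus and other slow growers inoculated at 1:10, other strains at 1:100. Visual MIC read-out versus growth control.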

[8] = system: Micrococcus luteus ATCC 9341; details: organism code OO; BHI agar, 35-37° C., 20 to 24 hours; unit assumed
How it was run: as §2

[9] = system: Mycobacterium smegmatis ATCC 114; details: organism code UU; BHI agar, 35-37° C., 20 to 24 hours; unit assumed
How it was run: as §1

[10] = system: Nocardia Asteroides ATCC9970; details: organism code VV; BHI agar, 35-37° C., 20 to 24 hours; unit assumed
How it was run: as §1

[11] = system: Staphylococcus aureus 1775; details: organism code GG; BHI agar, 35-37° C., 20 to 24 hours; unit assumed
How it was run: as §1

[12] = system: Staphylococcus aureus A-5278; details: organism code CC; BHI agar, 35-37° C., 20 to 24 hours; unit assumed
How it was run: as §1

[13] = system: Staphylococcus aureus A5177; details: organism code BB; BHI agar, 35-37° C., 20 to 24 hours; unit assumed
How it was run: as §1

[14] = system: Staphylococcus aureus ATCC 6538P; details: organism code AA; BHI agar, 35-37° C., 20 to 24 hours; unit assumed
How it was run: as §1

[15] = system: Staphylococcus aureus CMX 553; details: organism code FF; BHI agar, 35-37° C., 20 to 24 hours; unit assumed
How it was run: as §1

[16] = system: Staphylococcus aureus CMX 642A; details: organism code DD; BHI agar, 35-37° C., 20 to 24 hours; unit assumed
How it was run: as §1

[17] = system: Staphylococcus aureus NCTC10649M; details: organism code EE; BHI agar, 35-37° C., 20 to 24 hours; unit assumed
How it was run: as §1

[18] = system: Staphylococcus epidermidis 3519; details: organism code HH; BHI agar, 35-37° C., 20 to 24 hours; unit assumed
How it was run: as §1

[19] = system: Streptococcus Pneumonia 5649; details: organism code ZZA; BHI agar, 35-37° C., 20 to 24 hours; unit assumed
How it was run: as §1

[20] = system: Streptococcus Pneumonia 5979; details: organism code ZZ; BHI agar, 35-37° C., 20 to 24 hours; unit assumed
How it was run: as §1

[21] = system: Streptococcus Pneumonia ATCC6303; details: organism code XX; BHI agar, 35-37° C., 20 to 24 hours; unit assumed
How it was run: as §1

[22] = system: Streptococcus Pneumonia GYR 1171; details: organism code YY; BHI agar, 35-37° C., 20 to 24 hours; unit assumed
How it was run: as §1

[23] = system: Streptococcus agalactiae CMX 508; details: organism code KK; BHI agar, 35-37° C., 20 to 24 hours; unit assumed
How it was run: as §1

[24] = system: Streptococcus bovis A-5169; details: organism code JJ; BHI agar, 35-37° C., 20 to 24 hours; unit assumed
How it was run: as §1

[25] = system: Streptococcus pyogenes 930; details: organism code MM; BHI agar, 35-37° C., 20 to 24 hours; unit assumed
How it was run: as §1

[26] = system: Streptococcus pyogenes EES61; details: organism code LL; BHI agar, 35-37° C., 20 to 24 hours; unit assumed
How it was run: as §1

[27] = system: Streptococcus pyogenes PIU 2548; details: organism code NN; BHI agar, 35-37° C., 20 to 24 hours; unit assumed
How it was run: as §1

Structure (SMILES)	MIC [1] [µg/mL]	MIC [2] [µg/mL]	MIC [3] [µg/mL]	MIC [4] [µg/mL]	MIC [5] [µg/mL]	MIC [6] [µg/mL]	MIC [7] [µg/mL]	MIC [8] [µg/mL]	MIC [9] [µg/mL]	MIC [10] [µg/mL]	MIC [11] [µg/mL]	MIC [12] [µg/mL]	MIC [13] [µg/mL]	MIC [14] [µg/mL]	MIC [15] [µg/mL]	MIC [16] [µg/mL]	MIC [17] [µg/mL]	MIC [18] [µg/mL]	MIC [19] [µg/mL]	MIC [20] [µg/mL]	also measured
CC[C@H]1OC(=O)[C@H](C)C(=O)[C@H](C)[C@@H](O[C@@H]2O[C@H](C)C[C@H](N(C)C)[C@H]2O)[C@](C)(OCC#Cc2ccc(-c3ccc(Cl)s3)s2)C[C@@H](C)C(=O)[C@H](C)[C@H]2NC(=O)O[C@@]21C [Example 26]	> 100	0.1 (≈ 0.12 µM)	> 100	> 100	1.56 (≈ 1.87 µM)	4 (≈ 4.79 µM)	0.2 (≈ 0.239 µM)	0.05 (≈ 0.0598 µM)	0.39 (≈ 0.467 µM)	0.1 (≈ 0.12 µM)	12.5 (≈ 15 µM)	12.5 (≈ 15 µM)	0.2 (≈ 0.239 µM)	0.2 (≈ 0.239 µM)	0.2 (≈ 0.239 µM)	0.2 (≈ 0.239 µM)	0.2 (≈ 0.239 µM)	0.2 (≈ 0.239 µM)	0.25 (≈ 0.299 µM)	0.5 (≈ 0.598 µM)	MIC [21]: 0.03 µg/mL (≈ 0.0359 µM); MIC [22]: 0.03 µg/mL (≈ 0.0359 µM); MIC [23]: ≤ 0.005 µg/mL; MIC [24]: 0.05 µg/mL (≈ 0.0598 µM); MIC [25]: 3.1 µg/mL (≈ 3.71 µM); MIC [26]: 0.02 µg/mL (≈ 0.0239 µM); MIC [27]: 0.2 µg/mL (≈ 0.239 µM)
CC[C@H]1OC(=O)[C@H](C)C(=O)[C@H](C)[C@@H](O[C@@H]2O[C@H](C)C[C@H](N(C)C)[C@H]2O)[C@](C)(OC/C=C/c2ncc(-c3cccnc3)s2)C[C@@H](C)C(=O)[C@H](C)[C@H]2NC(=O)O[C@@]21C [Example 54]	> 100	0.02 (≈ 0.025 µM)	25 (≈ 31.3 µM)	1.56 (≈ 1.95 µM)	0.2 (≈ 0.25 µM)	2 (≈ 2.5 µM)	0.05 (≈ 0.0626 µM)	0.01 (≈ 0.0125 µM)	3.1 (≈ 3.88 µM)	0.01 (≈ 0.0125 µM)	> 100	> 100	0.05 (≈ 0.0626 µM)	0.05 (≈ 0.0626 µM)	0.05 (≈ 0.0626 µM)	0.05 (≈ 0.0626 µM)	0.1 (≈ 0.125 µM)	0.05 (≈ 0.0626 µM)	0.25 (≈ 0.313 µM)	4 (≈ 5.01 µM)	MIC [21]: 0.03 µg/mL (≈ 0.0375 µM); MIC [22]: 0.03 µg/mL (≈ 0.0375 µM); MIC [23]: ≤ 0.005 µg/mL; MIC [24]: ≤ 0.005 µg/mL; MIC [25]: 100 µg/mL (≈ 125 µM); MIC [26]: ≤ 0.005 µg/mL; MIC [27]: 0.1 µg/mL (≈ 0.125 µM)
CC[C@H]1OC(=O)[C@H](C)C(=O)[C@H](C)[C@@H](O[C@@H]2O[C@H](C)C[C@H](N(C)C)[C@H]2O)[C@](C)(OC/C=C/c2ccc(-c3ccsc3)s2)C[C@@H](C)C(=O)[C@H](C)[C@H]2NC(=O)O[C@@]21C [Example 76]	> 100	0.02 (≈ 0.0249 µM)	100 (≈ 125 µM)	100 (≈ 125 µM)	0.2 (≈ 0.249 µM)	8 (≈ 9.96 µM)	0.2 (≈ 0.249 µM)	0.05 (≈ 0.0623 µM)	0.78 (≈ 0.971 µM)	0.1 (≈ 0.125 µM)	100 (≈ 125 µM)	100 (≈ 125 µM)	0.1 (≈ 0.125 µM)	0.1 (≈ 0.125 µM)	0.1 (≈ 0.125 µM)	0.1 (≈ 0.125 µM)	0.05 (≈ 0.0623 µM)	0.1 (≈ 0.125 µM)	0.125 (≈ 0.156 µM)	16 (≈ 19.9 µM)	MIC [21]: ≤ 0.004 µg/mL; MIC [22]: ≤ 0.004 µg/mL; MIC [23]: 0.01 µg/mL (≈ 0.0125 µM); MIC [24]: ≤ 0.005 µg/mL; MIC [25]: 3.1 µg/mL (≈ 3.86 µM); MIC [26]: 0.01 µg/mL (≈ 0.0125 µM); MIC [27]: 0.1 µg/mL (≈ 0.125 µM)
CC[C@H]1OC(=O)[C@H](C)C(=O)[C@H](C)[C@@H](O[C@@H]2O[C@H](C)C[C@H](N(C)C)[C@H]2O)[C@](C)(OC/C=C/c2ccc3ncc(Br)cc3c2)C[C@@H](C)C(=O)[C@H](C)[C@H]2NC(=O)O[C@@]21C [Example 38]	> 100	0.05 (≈ 0.0592 µM)	> 100	100 (≈ 118 µM)	0.78 (≈ 0.923 µM)	2 (≈ 2.37 µM)	0.2 (≈ 0.237 µM)	0.05 (≈ 0.0592 µM)	0.39 (≈ 0.462 µM)	0.05 (≈ 0.0592 µM)	100 (≈ 118 µM)	100 (≈ 118 µM)	0.2 (≈ 0.237 µM)	0.2 (≈ 0.237 µM)	0.2 (≈ 0.237 µM)	0.2 (≈ 0.237 µM)	0.2 (≈ 0.237 µM)	0.2 (≈ 0.237 µM)	0.25 (≈ 0.296 µM)	2 (≈ 2.37 µM)	MIC [21]: 0.03 µg/mL (≈ 0.0355 µM); MIC [22]: 0.03 µg/mL (≈ 0.0355 µM); MIC [23]: 0.02 µg/mL (≈ 0.0237 µM); MIC [24]: ≤ 0.005 µg/mL; MIC [25]: 3.1 µg/mL (≈ 3.67 µM); MIC [26]: 0.02 µg/mL (≈ 0.0237 µM); MIC [27]: 0.2 µg/mL (≈ 0.237 µM)

Source: patent US6054435A, “6-O-substituted macrolides having antibacterial activity” (priority 1999, dated 2000)
